Assay results reported in ChEMBL document CHEMBL1147121, “Dammarane triterpenoids from the roots of Gentiana rigescens” (2007).
The source made the active and inactive calls. The calls are words filed in the database; no cut-off is given here.

Key:
[1] = Antifungal activity against […] musarum at 1 mg/mL by disc diffusion method; details: Gloeosporium
[2] = test system: Phytophthora litchii; experiment: Antifungal activity against Peronophythora litchii at 1 mg/mL by disc diffusion method
[3] = test system: Glomerella cingulata; experiment: Antifungal activity against Glomerella cingulata at 1 mg/mL by disc diffusion method
[4] = Antifungal activity against Glorosprium musarum at 1 ug/mL by disc diffusion method; type: functional; details: Gloeosporium

Structure (SMILES) | Activity [1] | Activity [2] | Activity [3] | inhibition zone (IZ) [4]
CC1(C)O[C@](C(=O)O)([C@H]2CC[C@]3(C)[C@@H]2CC[C@@H]2[C@@]4(C)CC[C@H](O[C@@H]5O[C@H](CO)[C@@H](O)[C@H](O)[C@H]5O[C@@H]5O[C@H](CO)[C@@H](O)[C@H](O)[C@H]5O)C(C)(C)[C@@H]4CC[C@]23C)C[C@H](O)[C@@H]1O [GENTIRIGEOSIDE E] | inactive | inactive | – | –
CC1(C)O[C@](C(=O)O)([C@H]2CC[C@]3(C)[C@@H]2CC[C@@H]2[C@@]4(C)CC[C@H](O[C@@H]5O[C@H](CO)[C@@H](O)[C@H](O)[C@H]5O[C@@H]5O[C@H](CO)[C@@H](O)[C@H](O)[C@H]5O)[C@](C)(CO)[C@@H]4CC[C@]23C)C[C@H](O)[C@@H]1O | inactive | inactive | inactive | –
CC1(C)O[C@](C(=O)O)([C@H]2CC[C@]3(C)[C@@H]2CC[C@@H]2[C@@]4(C)CC[C@H](O[C@@H]5O[C@H](CO)[C@@H](O)[C@H](O)[C@H]5O)[C@](C)(CO)[C@@H]4CC[C@]23C)C[C@H](O)[C@@H]1O [GENTIRIGEOSIDE A] | inactive | inactive | – | –
COC(=O)Nc1nc2ccccc2[nH]1 [CARBENDAZIM] | – | – | – | 4 mm
C[C@]12CC[C@H](O[C@@H]3O[C@H](CO)[C@@H](O)[C@H](O)[C@H]3O)[C@](C)(CO)[C@@H]1CC[C@]1(C)[C@@H]2CC[C@@H]2[C@@H]([C@]3(C(=O)O)C[C@H](O)[C@H](O)[C@](C)(CO)O3)CC[C@]21C | inactive | inactive | inactive | –
CC1(C)O[C@](C(=O)O)([C@H]2CC[C@]3(C)[C@@H]2CC[C@@H]2[C@@]4(C)CC[C@H](O)[C@](C)(CO)[C@@H]4CC[C@]23C)C[C@H](O)[C@@H]1O | inactive | inactive | inactive | –
CC1(C)O[C@](C(=O)O)([C@H]2CC[C@]3(C)[C@@H]2CC[C@@H]2[C@@]4(C)CC[C@H](O[C@@H]5O[C@H](CO)[C@@H](O)[C@H](O)[C@H]5O)[C@](C)(CO[C@@H]5O[C@H](CO)[C@@H](O)[C@H](O)[C@H]5O)[C@@H]4CC[C@]23C)C[C@H](O)[C@@H]1O [GENTIRIGEOSIDE C] | inactive | inactive | – | –
